Laboratory results taken from US7572376B2, “Process for producing 1,3-propanediol” (Tate & Lyle Ingredients Americas, Inc., priority 2003, dated 2009).

How the values were obtained:
[1] = log P=[solute]octanol/[solute]water; cited from earlier work
[2] = solvent screen: PDO mixture with single solvents, distribution between solvent and aqueous phase; assay type: physicochemical; conditions: 30° C.; for Distribution Coefficient Glucose / Distribution Coefficient Glycerol / Distribution Coefficient PDO: conc. in solvent phase / conc. in aqueous phase, aqueous solution 46% w/v PDO, 3.5% glycerol, […] glucose; for Selectivity PDO/Glycerol: distribution coefficient of PDO divided by that of glycerol
Experimental: 10 g of an aqueous solution containing 46% w/v PDO, 3.5% glycerol and 2.9% glucose was heated to 30° C. and the required solvent added in very small quantities until a cloudiness just began to develop. Additional solvent (about 1 g) was added and thoroughly mixed. The mixture was allowed to settle for 10 minutes and then centrifuged to achieve complete phase separation. The two phases (solvent and aqueous) were analyzed.

| Compound | hydrophobic parameter log P [1] | Distribution Coefficient Glucose [2] | Distribution Coefficient Glycerol [2] | Distribution Coefficient PDO [2] | Selectivity PDO/Glycerol [2] | further results |
| --- | --- | --- | --- | --- | --- | --- |
| CCCCCCCO [heptanol] | 2.4 | – | – | – | – | – |
| CCCCCO [Pentan-1-ol] | – | 0.256 | 0.417 | 0.609 | 1.46 | – |
| CCCCCCCC/C=C\CCCCCCCC(=O)O [Oleic acid] | – | 0.241 | 0.002 | 0.009 | 5.23 | – |
| CC(O)CO (stereo not shown) [1,2 PDO] | −1.003 | – | – | – | – | – |
| CCCCCCCCCCCCO [dodecanol] | 5.0 | – | – | – | – | – |
| CCCOC(C)=O [propyl acetate] | 1.2 | – | – | – | – | – |
| OCCCCO [1,4 butanediol] | −1.384 | – | – | – | – | – |
| CCCCCCCC/C=C\CCCCCCCCO [Oleyl Alcohol] | – | 0.001 | 0.024 | 0.038 | 1.60 | – |
| CCCCCCCC [octane] | 4.5 | – | – | – | – | – |
| CC(=O)CC(C)C [4-Methyl Pentan-2-one] | – | 0.001 | 0.008 | 0.033 | 4.03 | – |
| CCCCO [Butan-1-ol] | – | – | – | – | – | phase formation on adding solvent to the aqueous PDO solution [2]: Only one liquid phase formed |
| CCCCCCC [heptane] | 4.0 | – | – | – | – | – |
| OCC(O)CO [glycerol] | −2.08 | – | – | – | – | – |
| CCCCCCCCCC [decane] | 5.98 | – | – | – | – | – |
| CCOC(C)=O [ethyl acetate] | 0.68 | – | – | – | – | – |
| CC(=O)OC(C)C [isopropyl acetate] | – | 0.001 | 0.005 | 0.024 | 5.17 | – |
